Assay results as given in ChEMBL document CHEMBL4265960, “Dithiocarbamates: Efficient metallo-β-lactamase inhibitors with good antibacterial activity when combined with meropenem” (Bioorg Med Chem Lett, 2018).
≈ marks a conversion by molar mass, not a printed value. Calls of active or inactive are those of the source. The calls are words filed in the database; no cut-off is given here.

Tests used:
[1] = molecular target: Metallo-beta-lactamase type 2 (Klebsiella pneumoniae) (UniProt C7C422)
Escherichia coli [2] = test: Inhibition of Escherichia coli IMP4 assessed as potentiation of meropenem-induced antibacterial activity by measuring meropenem MIC at 64 ug/ml after 16 to 18 hrs by broth microdilution method (reference value: 20 to 160 ug/ml)
Proteus mirabilis [3] = test: Inhibition of Proteus mirabilis NDM1 assessed as potentiation of meropenem-induced antibacterial activity by measuring meropenem MIC at 64 ug/ml after 16 to 18 hrs by broth microdilution method (reference value: 20 to 160 ug/ml)
[4] = molecular target: Beta-lactamase NDM-1 (Escherichia coli) (UniProt E5KIY2)
Citrobacter freundii [5] = test: Inhibition of Citrobacter freundii NDM1 assessed as potentiation of meropenem-induced antibacterial activity by measuring meropenem MIC at 64 ug/ml after 16 to 18 hrs by broth microdilution method (reference value: 20 ug/ml)
[6] = molecular target: T1, Metallo-beta-lactamase NDM-4 (Escherichia coli) (UniProt H6WZS9); test: Inhibition of Escherichia coli NDM4 assessed as potentiation of meropenem-induced antibacterial activity by measuring zone of inhibition at 10 uL after 16 to 18 hrs by disc diffusion method (reference value: 9.6 +/- 0.5 millimeter)
T1 sequence (whole entry): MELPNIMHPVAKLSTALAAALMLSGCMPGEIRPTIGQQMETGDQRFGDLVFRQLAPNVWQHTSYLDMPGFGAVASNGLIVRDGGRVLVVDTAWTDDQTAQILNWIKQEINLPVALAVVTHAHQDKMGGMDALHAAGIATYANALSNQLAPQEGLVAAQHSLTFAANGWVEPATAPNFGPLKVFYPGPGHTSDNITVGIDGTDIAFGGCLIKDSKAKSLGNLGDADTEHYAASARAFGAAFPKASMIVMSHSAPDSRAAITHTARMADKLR

Escherichia coli [7] = test: Inhibition of Escherichia coli IMP4 assessed as potentiation of meropenem-induced antibacterial activity by measuring zone of inhibition at 10 uL after 16 to 18 hrs by disc diffusion method (reference value: 9.8 +/- 0.6 millimeter)
[8] = molecular target: Beta-lactamase (Klebsiella pneumoniae) (UniProt Q4LDF1)
Escherichia coli [9] = test: Toxicity against Escherichia coli harboring IMP4 assessed as reduction in bacterial growth after 16 to 18 hrs by broth microdilution method; format: organism-based
[10] = molecular target: Beta-lactamase NDM-1 (Escherichia coli) (UniProt E5KIY2); remark: listed apart in the source
Escherichia coli [11] = test: Inhibition of Escherichia coli IMP4 assessed as potentiation of meropenem-induced bactericidal activity by measuring bacterial count at 4 times MIC incubated for 24 hrs followed by replating on agar plates and further incubated for 16 to 18 hrs measured for 24 hrs by time kill assay
Escherichia coli [12] = test: (§1) Inhibition of Escherichia coli IMP4 assessed as potentiation of meropenem-induced bactericidal activity by measuring reduction in bacterial colonies at 8 times MIC incubated up to 8 hrs followed by replating on agar plates and further incubated for 16 to 18 hrs measured for 24 hrs by time kill assay
Escherichia coli [13] = test: Toxicity against Escherichia coli harboring NDM1 after 16 to 18 hrs by broth microdilution method; format: organism-based
HeLa [14] = test: Cytotoxicity against human HeLa cells at 32 ug/ml after 24 hrs by calcein-AM/propidium iodide staining based fluorescence microscopic analysis; format: cell-based
Erythrocyte = test: Hemolytic activity against sheep RBC at 1.953 to 1000 ug/ml after 1 hr; format: ADME, cell-based, Ovis aries
HeLa [15] = test: Cytotoxicity against human HeLa cells after 24 hrs by CCK8 assay; format: cell-based
Proteus mirabilis [16] = test: Inhibition of Proteus mirabilis NDM1 assessed as potentiation of meropenem-induced antibacterial activity by measuring fold reduction in meropenem MIC at 64 ug/ml after 16 to 18 hrs by broth microdilution method relative to meropenem alone
Escherichia coli [17] = test: Inhibition of Escherichia coli IMP4 assessed as potentiation of meropenem-induced antibacterial activity by measuring reduction in bacterial growth at 64 ug/ml after 16 to 18 hrs in presence of ZnCl2 by broth microdilution method
[18] = molecular target: Beta-lactamase NDM-1 (Escherichia coli) (UniProt E5KIY2); remark: listed apart in the source
Citrobacter freundii [19] = test: Inhibition of Citrobacter freundii NDM1 assessed as potentiation of meropenem-induced antibacterial activity by measuring fold reduction in meropenem MIC at 64 ug/ml after 16 to 18 hrs by broth microdilution method relative to meropenem alone
Escherichia coli [20] = test: Inhibition of Escherichia coli IMP4 assessed as potentiation of meropenem-induced antibacterial activity by measuring bacterial growth at 64 ug/ml after 16 to 18 hrs by broth microdilution method (reference value: 93.43 +/- 2.12%); design: scale not given: the % may be the effect or the level left
Escherichia coli [21] = test: Inhibition of Escherichia coli IMP4 assessed as potentiation of meropenem-induced bactericidal activity by measuring bacterial count at 8 times MIC incubated for 24 hrs followed by replating on agar plates and further incubated for 16 to 18 hrs measured for 24 hrs by time kill assay
Escherichia coli [22] = test: as §1, with “colonies at 4 to 8 times” for “colonies at 8 times”, “MIC incubated for 3 hrs followed” for “MIC incubated up to 8 hrs followed”
Escherichia coli [23] = test: Inhibition of Escherichia coli IMP4 assessed as potentiation of meropenem-induced bactericidal activity by measuring bacterial count at 4 times MIC incubated for 8 hrs followed by replating on agar plates and further incubated for 16 to 18 hrs measured for 24 hrs by time kill assay
Escherichia coli [24] = test: Inhibition of Escherichia coli IMP4 assessed as potentiation of meropenem-induced bactericidal activity by measuring reduction in bacterial colonies at 8 times MIC incubated up to 3 hrs followed by replating on agar plates and further incubated for 16 to 18 hrs measured for 24 hrs by time kill assay

| SMILES | MIC [1] | MIC (Escherichia coli [2]) | MIC (Proteus mirabilis [3]) | MIC [4] | MIC (Citrobacter freundii [5]) | inhibition zone (IZ) [6] | inhibition zone (IZ) (Escherichia coli [7]) | MIC [8] | also measured |
| --- | --- | --- | --- | --- | --- | --- | --- | --- | --- |
| S=C([S-])N1CCCCC1.[Na+] | < 0.0312 µg/mL | < 16 µg/mL | 4 to 16 µg/mL | 0.25 µg/mL | – | 23.9 mm | 24.2 mm | < 0.0312 µg/mL | Activity (Escherichia coli [9]): Non-Toxic; MBC [10]: 1 µg/mL; Activity (Escherichia coli [11]): 1 to 2 log10CFU/ml; Activity (Escherichia coli [12]): Active; MIC (Escherichia coli [13]): > 128 µg/mL; Activity (HeLa [14]): Non-Toxic; Activity (Erythrocyte): Non-Toxic; IC50 (HeLa [15]): 634 µg/mL; fold change (FC) (Proteus mirabilis [16]): < 320; Activity (Escherichia coli [17]): inactive; MBC [18]: < 0.0312 µg/mL; fold change (FC) (Citrobacter freundii [19]): < 320; Activity (Escherichia coli [20]): 3.55% |
| S=C([S-])N1CCCC1.[Na+] | < 0.0312 µg/mL | < 16 µg/mL | 2 to 8 µg/mL | 2 µg/mL | – | 22.1 mm | 22.8 mm | < 0.0312 µg/mL | Activity (Escherichia coli [9]): Non-Toxic; MIC (Escherichia coli [13]): > 128 µg/mL; Activity (HeLa [14]): Non-Toxic; Activity (Erythrocyte): Non-Toxic; IC50 (HeLa [15]): 349 µg/mL; fold change (FC) (Proteus mirabilis [16]): < 320; Activity (Escherichia coli [21]): 9 to 10 log10CFU/ml |
| CCCCCCCCN(CCCCCCCC)C(=S)S | 1 to 8 µg/mL (≈ 3.15 to 25.2 µM) | 1 to 8 µg/mL | 2 to 4 µg/mL | 4 to 16 µg/mL (≈ 12.6 to 50.4 µM) | 4 µg/mL | inactive | inactive | < 1 µg/mL | – |
| O=C(O)CN1CCN(CC(=O)O)CCN(CC(=O)O)CC1 | – | – | – | – | – | 22.9 mm | 20.3 mm | – | Activity (Escherichia coli [22]): Active |
| CCN(CC)C(=S)[S][Na] [DITIOCARB SODIUM] | – | – | – | – | – | – | – | – | Activity (Escherichia coli [9]): Non-Toxic; MIC (Escherichia coli [13]): > 128 µg/mL; Activity (HeLa [14]): Non-Toxic; Activity (Erythrocyte): Non-Toxic |
| S=C(S)N1CCOCC1 | 4 to 16 µg/mL (≈ 24.5 to 98 µM) | 2 to 16 µg/mL | 16 µg/mL | 8 µg/mL (≈ 49 µM) | 2 µg/mL | – | – | 8 to 16 µg/mL (≈ 49 to 98 µM) | – |
| S=C(S)N1CCN(C(=S)S)CC1 | 4 to 16 µg/mL (≈ 16.8 to 67.1 µM) | 4 to 16 µg/mL | 4 to 8 µg/mL | 8 to 16 µg/mL (≈ 33.6 to 67.1 µM) | 2 µg/mL | inactive | inactive | 8 to 16 µg/mL (≈ 33.6 to 67.1 µM) | – |

Now from value to compound, other results behind:

| MIC [1] | MIC (Escherichia coli [2]) | MIC (Proteus mirabilis [3]) | MIC [4] | MIC (Citrobacter freundii [5]) | inhibition zone (IZ) [6] | inhibition zone (IZ) (Escherichia coli [7]) | MIC [8] | SMILES | also measured |
| --- | --- | --- | --- | --- | --- | --- | --- | --- | --- |
| inactive | inactive | inactive | inactive | inactive | inactive | inactive | inactive | CCCCCCCCCCCCCCNC(=S)S | – |
| 8 to 16 µg/mL (≈ 30.6 to 61.2 µM) | 4 to 16 µg/mL | 8 to 16 µg/mL | 8 µg/mL (≈ 30.6 µM) | 8 µg/mL | inactive | inactive | 16 µg/mL (≈ 61.2 µM) | CCCCCCN(CCCCCC)C(=S)S | – |
| < 2 µg/mL | < 16 µg/mL | 0.5 to 4 µg/mL | 1 to 16 µg/mL | < 0.0312 µg/mL | 18.9 mm | 17.2 mm | < 2 µg/mL | CCN(CC)C(=S)[S-].[Na+] [DITIOCARB SODIUM] | Activity (Escherichia coli [23]): 3 to 4 log10CFU/ml; IC50 (HeLa [15]): > 1280 µg/mL; Activity (Escherichia coli [24]): Active |
| inactive | 2 to 16 µg/mL | 0.25 µg/mL | 16 µg/mL (≈ 90.2 µM) | inactive | inactive | inactive | 16 µg/mL (≈ 90.2 µM) | CCCCCCNC(=S)S | – |
